Test results reported in PubChem BioAssay AID1963856 (Molecular Pharmacology Branch, DTP, NCI, 2024).
“And” between values parts separate entries of the source, which are not always exact repeats. Equal entries are not always repeated.

Tested on: LG0567-F671-PDC KRAS tumor spheroid viability
Test: Anticancer human tumor LG0567-F671-PDC patient-derived lung adenocarcinoma cell line growth inhibition [KRAS2]
Details: spheroids with HUVEC and MSC; for viability, T/C: stronger effect = lower value
Outline: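 KRAS-mutant tumor cells were grown as spheroids with HUVEC endothelial cells and human MSCs as stroma. Targeted agents were tested alone and with KRAS pathway inhibitors. Doses started at or near clinical Cmax, or 10 microM, descending half-log.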

[1] = curve of first compound, second compound 0.1 µM
[2] = curve of first compound, second compound 0.316 µM
[3] = curve of first compound, second compound 1 µM
[4] = curve of first compound, second compound 3.16 µM
[5] = curve of first compound, second compound 10 µM
[6] = second compound 0.1 µM, first compound 0.01 µM
[7] = second compound 0.1 µM, first compound 0.0316 µM
[8] = second compound 0.1 µM, first compound 0.1 µM
[9] = second compound 0.1 µM, first compound 0.316 µM
[10] = second compound 0.1 µM, first compound 1 µM
[11] = second compound 0.1 µM, first compound 3.16 µM
[12] = second compound 0.316 µM, first compound 0.01 µM
[13] = second compound 0.316 µM, first compound 0.0316 µM
[14] = second compound 0.316 µM, first compound 0.1 µM
[15] = second compound 0.316 µM, first compound 0.316 µM
[16] = second compound 0.316 µM, first compound 1 µM
[17] = second compound 0.316 µM, first compound 3.16 µM
[18] = second compound 1 µM, first compound 0.01 µM
[19] = second compound 1 µM, first compound 0.0316 µM
[20] = second compound 1 µM, first compound 0.1 µM
[21] = second compound 1 µM, first compound 0.316 µM
[22] = second compound 1 µM, first compound 1 µM
[23] = second compound 1 µM, first compound 3.16 µM
[24] = second compound 3.16 µM, first compound 0.01 µM
[25] = second compound 3.16 µM, first compound 0.0316 µM
[26] = second compound 3.16 µM, first compound 0.1 µM
[27] = second compound 3.16 µM, first compound 0.316 µM
[28] = second compound 3.16 µM, first compound 1 µM
[29] = second compound 3.16 µM, first compound 3.16 µM
[30] = second compound 10 µM, first compound 0.01 µM
[31] = second compound 10 µM, first compound 0.0316 µM
[32] = second compound 10 µM, first compound 0.1 µM
[33] = second compound 10 µM, first compound 0.316 µM
[34] = second compound 10 µM, first compound 1 µM
[35] = second compound 10 µM, first compound 3.16 µM
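Note: drug exposure lasted seven days after spheroids formed for three days.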
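Throughout, for viability, T/C: 100% = DMSO vehicle control viability.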

## CC(=O)OC12COC1CC(O)C1(C)C(=O)C(O)C3=C(C)C(OC(=O)C(O)C(NC(=O)OC(C)(C)C)c4ccccc4)CC(O)(C(OC(=O)c4ccccc4)C21)C3(C)C (centres undefined) + CNCc1ccccc1-c1csc(C(C)Nc2nc(C)nc3cc(OC)c(OC)cc23)c1
[1]
  IC50: < 10 nM
[2]
  IC50: < 10 nM
[3]
  IC50: < 10 nM
[4]
  IC50: < 10 nM
[5]
  IC50: < 10 nM
[6]
  viability, T/C: 48.5%
[7]
  viability, T/C: 46.4%
[8]
  viability, T/C: 43.9%
[9]
  viability, T/C: 47.1%
[10]
  viability, T/C: 61.4%
[11]
  viability, T/C: 53.6%
[12]
  viability, T/C: 35.6%
[13]
  viability, T/C: 34.3%
[14]
  viability, T/C: 34.4%
[15]
  viability, T/C: 42.4%
[16]
  viability, T/C: 39.5%
[17]
  viability, T/C: 40%
[18]
  viability, T/C: 44%
[19]
  viability, T/C: 40.9%
[20]
  viability, T/C: 42.2%
[21]
  viability, T/C: 48.3%
[22]
  viability, T/C: 48.1%
[23]
  viability, T/C: 42.1%
[24]
  viability, T/C: 24%
[25]
  viability, T/C: 0.94%
[26]
  viability, T/C: 0.36%
[27]
  viability, T/C: 0.26%
[28]
  viability, T/C: 0.19%
[29]
  viability, T/C: 37.5%
[30]
  viability, T/C: 0.6%
[31]
  viability, T/C: 0.13%
[32]
  viability, T/C: 0.43%
[33]
  viability, T/C: 0.19%
[34]
  viability, T/C: 42.7%
[35]
  viability, T/C: 0.85%

## CC(C)NCC(C(=O)N1CCN(c2ncnc3c2C(C)CC3O)CC1)c1ccc(Cl)cc1 (centres undefined) + COc1cc2nc(C)nc(NC(C)c3cc(N)cc(C(F)(F)F)c3)c2cc1OC1CCOC1
[1]
  IC50: 484 nM
[2]
  IC50: 467 nM
[3]
  IC50: 216 nM
[4]
  IC50: 415 nM
[5]
  IC50: 50.7 nM
[7]
  viability, T/C: 75.4%
[8]
  viability, T/C: 69.1%
[9]
  viability, T/C: 56.2%
[10]
  viability, T/C: 42%
[11]
  viability, T/C: 14.1%
Second compound 0.1 µM, first compound 10 µM
  viability, T/C: 33.5%
[13]
  viability, T/C: 75.8%
[14]
  viability, T/C: 65.2%
[15]
  viability, T/C: 59.1%
[16]
  viability, T/C: 33.9%
[17]
  viability, T/C: 8.71%
Second compound 0.316 µM, first compound 10 µM
  viability, T/C: 23.5%
[19]
  viability, T/C: 71.5%
[20]
  viability, T/C: 58.5%
[21]
  viability, T/C: 44%
[22]
  viability, T/C: 32.2%
[23]
  viability, T/C: 7.19%
Second compound 1 µM, first compound 10 µM
  viability, T/C: 2.61%
[25]
  viability, T/C: 60.1%
[26]
  viability, T/C: 58.3%
[27]
  viability, T/C: 66.4%
[28]
  viability, T/C: 12%
[29]
  viability, T/C: 5.68%
Second compound 3.16 µM, first compound 10 µM
  viability, T/C: 19.6%
[31]
  viability, T/C: 56.7%
[32]
  viability, T/C: 39.8%
[33]
  viability, T/C: 21.6%
[34]
  viability, T/C: 5.09%
[35]
  viability, T/C: 3.01%
Second compound 10 µM, first compound 10 µM
  viability, T/C: 4.23%

## CC(=O)OC12COC1CC(O)C1(C)C(=O)C(O)C3=C(C)C(OC(=O)C(O)C(NC(=O)OC(C)(C)C)c4ccccc4)CC(O)(C(OC(=O)c4ccccc4)C21)C3(C)C (centres undefined) + C=CC(=O)N1CCN(c2nc(=O)n(-c3c(C)ccnc3C(C)C)c3nc(-c4c(O)cccc4F)c(F)cc23)C(C)C1
[1]
  IC50: < 10 nM
[2]
  IC50: < 10 nM
[3]
  IC50: < 10 nM
[4]
  IC50: < 10 nM
[5]
  IC50: < 10 nM
[6]
  viability, T/C: 13.4%
[7]
  viability, T/C: 14.2%
[8]
  viability, T/C: 14.2%
[9]
  viability, T/C: 14.9%
[10]
  viability, T/C: 18.2%
[11]
  viability, T/C: 13.5%
[12]
  viability, T/C: 13.7%
[13]
  viability, T/C: 12%
[14]
  viability, T/C: 12.1%
[15]
  viability, T/C: 12.3%
[16]
  viability, T/C: 16.3%
[17]
  viability, T/C: 12.7%
[18]
  viability, T/C: 12.6%
[19]
  viability, T/C: 10.2%
[20]
  viability, T/C: 10.1%
[21]
  viability, T/C: 12%
[22]
  viability, T/C: 12.8%
[23]
  viability, T/C: 10.6%
[24]
  viability, T/C: 10.7%
[25]
  viability, T/C: 9.62%
[26]
  viability, T/C: 9.62%
[27]
  viability, T/C: 9.52%
[28]
  viability, T/C: 13.2%
[29]
  viability, T/C: 10.1%
[30]
  viability, T/C: 13.7%
[31]
  viability, T/C: 14%
[32]
  viability, T/C: 15.6%
[33]
  viability, T/C: 14.4%
[34]
  viability, T/C: 14.5%
[35]
  viability, T/C: 12.1%

## COc1cc2nc(C)nc(NC(C)c3cc(N)cc(C(F)(F)F)c3)c2cc1OC1CCOC1 (centres undefined)
Compound 0.316 µM
  viability, T/C: 71.1% [middle of 17 runs]
Compound alone, run of 07/12/2021
  IC50: > 10000 nM and 2620 nM and 2850 nM
Compound alone, run of 07/19/2021
  IC50: > 10000 nM
Compound alone, run of 07/26/2021
  IC50: > 10000 nM
